Data as given in US20170016037A1, “Method for Increasing the Solubility of Methionine by Mineral Addition and Acid Treatment” (CJ CHEILJEDANG CORPORATION, priority 2009, published 2017).
Where two headings read alike, the source gives them in different places.

Experiments:
[1] = cited from earlier work; for solubility in the aqueous solution: generally
[2] = cited from earlier work
[3] = pH 2; cited from earlier work

| methionine solution concentration (L-methionine crystal powder purified to 99% or more from fermentation/enzymatic conversion solution, same manner as Examples 1 to 4) [%] | solubility of L-methionine (L-methionine-containing solution produced by fermentation and enzymatic conversion reaction) | result of the same experiment using DL-methionine (as Example 1 (manganese sulfide, 0.1 M sulfuric acid; 50% solution), DL-methionine 99% Sigma) | result of the same experiment using DL-methionine (as Example 2 (zinc sulfide, 0.1 M sulfuric acid; 50% solution)) | result of the same experiment using DL-methionine (as Example 3 (3.75% minerals, 0.1 M sulfuric acid; 50% solution)) | result of the same experiment using DL-methionine (as Example 4 (1.88% minerals, 0.1 M sulfuric acid; 50% solution)) | methionine solubility maximized by combination of mineral addition and acid addition (summary statement, mineral amount less than 15% of the method used before) [%] | Compound | solubility in the aqueous solution [1] | solubility of DL-methionine with use of mineral ([2]; U.S. Pat. No. 5,430,164, mineral) | solubility of DL-methionine with acid treatment [3] | maximum methionine solution concentration ([2]; U.S. Pat. No. 5,430,164, total 3.5 to 3.9 M minerals (3.35 M zinc sulfate, 0.167 to 0.569 M ferric chloride), 1 L) [%] | solubility of methionine in water ([1]; room temperature, generally known) [g/L] |
| --- | --- | --- | --- | --- | --- | --- | --- | --- | --- | --- | --- | --- |
| ≥ 50 | up to 35% | – | – | – | – | – | CSCC[C@H](N)C(=O)O [L-methionine] | about 5 % (w/v) | – | – | – | – |
| – | – | identical results | identical results | identical results | identical results | – | CSCCC(N)C(=O)O (racemic) [DL-methionine] | about 5 % (w/v) | up to 12 % (w/v) | 18 % (w/v) | – | – |
| – | – | – | – | – | – | 50 | CSCC[C@H](N)C(=O)O (racemic) [methionine] | – | – | – | ≤ 50 | 50 to 55 |
